Results reported in patent publication US10357537B2, “Cyclotides as immunosuppressive agents” (priority 2011, dated 2019).
Bridge positions count the residues as written; N and C are the ends. Peptide text beside a SMILES is read from it.

Key:
[1] = system: IFN-gamma production of activated PBMCs; test: IFN-gamma secretion of PBMC, ELISA-based FACS; type: cell-based, human; settings: for IFN-gamma production as compared to the control, 36 h: 36 h past stimulation
Protocol: FIG. 14. IFN-γ secretion by cyclotide-treated PBMC. […] Untreated cells were used as control. Following 24 h or 36 h of cultivation, the cells were restimulated with PMA/Ionomycin for further 6 hour. The amount of IFN-γ was measured in the supernatant of cultured cells using an ELISA-based flow cytometric method. The data are presented as mean and standard deviation (SD) of three independent experiments.
(§1) Activated cells were resuspended in 50 μl of medium, transferred into a 96-well plate and treated with 10 μg/ml PHA-L. After incubation for 24 h cells were re-stimulated with PMA (50 ng/ml) und ionomycin (500 ng/ml) for 6 h. Next, the cells were transferred into Eppendorf tubes, centrifuged (5 min, 3000 RPM, 20° C.) und 50 μl of the supernatant was again transferred into new tubes and stored at −20° C. Production of cytokines was measured and quantified using the FlowCytomix™ kit according to manufacturer's instructions.
(§2) Therefore it is of interest to determine whether cyclotides only have anti-proliferative effects or also affect the effector function of T-lymphocytes, which would directly relate to changes in the IFN-gamma and TNF-alpha production. Therefore, the production of both cytokines of cyclotide-treated, activated PBMCs at an early time point after PBMC activation was tested.

[2] = system: TNF-alpha production of activated PBMCs; test: TNF-alpha secretion of PBMC, ELISA-based FACS; type: cell-based, human; settings: 24 h + 6 h PMA/ionomycin; T20K 4 μM, CsA 5 μg/mL
Protocol: FIG. 15. […] Untreated cells were used as control. Following 24 h or 36 h of cultivation, the cells were restimulated with PMA/Ionomycin for further 6 hour. […] The data are presented as mean and standard deviation (SD) of three independent experiments.
as §1, §2

IL-2 release in PBMCs = test: IL-2 release of PBMC, ELISA-based FACS; type: cell-based, human; settings: PHA-L 24 h, PMA/ionomycin 6 h; T20K 4 μM, CsA 5 μg/mL
Protocol: Following purification, PBMCs were equilibrated for 2 h at 37° C. […] This was followed by washing of each well with 100 μl PBS (centrifugation for 5 min, 1000 rpm, 20° C.) and re-suspending the cells in 100 μl medium for further assays.
as §1
To analyze the mechanism of cyclotide-mediated anti-proliferation of T-lymphocytes, their effect on the direct release of IL-2 in PBMCs was determined. The cells were treated with a cyclotide and activated with PHA-L. After 24 h the cells were re-stimulated with PMA and ionomycin and the IL-2 concentration in the supernatant (released IL-2) was measured with an ELISA-based FACS methodology (FIG. 12A).

[3] = system: splenic T-cells of naive mouse group; test: Cytokine release of splenic T-cells of naive EAE mice treated in vitro, ELISA; type: cell-based; settings: for IL2 release after 48 h incubation: V10K 4 μM, MOG35-55 30 μg/mL
Protocol: FIG. 22. Effect on cytokine release of ex vivo isolated PBMC at day 1 and 2. […] To approve this EAE TH bias towards TH17 and TH1 cells, IL4 release was again analyzed, but this TH2 cytokine was not detectable (I, J), as already indicated in (D).
Spleens of sacrificed mice were taken and transferred into a 6 cm Petri Dish with 5 mL sterile PBS. To receive a spleenocyte suspension, spleens were meshed and filtered through 70 μm nylon sieve. Cells were centrifuged at 1200 rpm for 5 minutes and resuspended in RPMI 1640 media supplemented with 10% fetal calf serum (FCS), 2 mM L-glutamine, penicillin (100 U/mL), and streptomycin (100 μg/mL). Spleenocytes were cultivated at a concentration of 3×10^6/mL in a 48-well flat-bottom plate (500 μL/well). Cells were stimulated with 30 μg/mL MOG35-55 or left untreated and incubated at 37° C. for three days. Supernatants and cells were taken stored at −20° C. until further experiments. […] After 12 hours MOG or T20K was added to appropriate wells. Supernatants were stored after 24 hours and after 48 hours at −20° C.
Supernatants of stimulated spleenocytes were analyzed for their IL2, IL17, INFγ, IL4 and IL22 cytokine release using anti-mouse antibodies for ELISA from eBioscience according to the manufacturer's instructions. The color reaction was evaluated at an optical density of 450 nm by the microplate reader Synergy H4 (BioTek).

[4] = system: degranulation marker LAMP-1 (CD107a) on activated PBMC; test: CD107a degranulation analysis; type: cell-based, human; settings: after 36 h; T20K 4 μM, CsA 5 μg/mL
Protocol: FIG. 16. Degranulation capacity of cyclotide-treated activated human PBMC. […] After 36 hour of cultivation the cells were restimulated with PMA/Ionomycin for 2.5 hours in the presence of a CD107a mAbs and GolgiStop reagent to determine the amount of degranulation by flow cytometry. Representative data are shown in dot plots (A) and in (B) data are presented as mean and standard deviation (SD) of three independent experiments.
Activated cells were grown for 36 h and then treated for re-stimulation with PMA (50 ng/ml) und ionomycin (500 ng/ml) and stained with CD107a PE. After 1 h the reaction was stopped with 2 μl Golgi-Stop (1:10) and incubated for 2.5 h at 37° C. The cells were transferred into a 96-well plate, centrifuged (5 min, 1000 RPM, 20° C.) and washed with 100 μl FACS-buffer. Afterwards, PBMCs were stained with CD8 PE-Cy5 for 15 min at 4° C. and following to wash cycles with FACS-buffer the cells were resuspended in 100 μl, transferred into FACS vials with a total volume of 250 μl and the degranulation was measured by FACS analysis.
After determining the influence of cyclotide treatment on the effector function of PBMCs on the basis of measuring IFN-gamma and TNF-alpha cytokine levels, it is of interest to determine an effect of cyclotides on the degranulation activity. Activation of cytotoxic CD8^+-lymphocytes lead to a release of cytolytic granules, which contain/express lysosomal-associated membrane protein 1 (CD107; LAMP-1). During degranulation, the granule vesicle membranes fuse with the membranes of activated CD8^+-lymphocytes and therefore LAMP-1 can be used as a marker protein for the cytotoxic activity of T-lymphocytes, which can be measured with FACS. After 36 h, 42%±21.4 of the CsA- and 49%±16.8 of the T20K-treated cells contain the degranulation marker LAMP-1 as compared to the control (FIG. 16). This can be interpreted in the way that CsA- and T20K-treated cells have reduced cytotoxicity.

Row | Compound | IFN-gamma concentration as compared to the control, 24 h ([1]; 24 h + 6 h PMA/ionomycin, T20K 4 μM, CsA 5 μg/mL) | IFN-gamma production as compared to the control, 36 h [1] | TNF-alpha expression as compared to the control, 24 h [2] | IL-2 release as compared to the control cells (IL-2 release in PBMCs) | IL17 production after 48 h ([3]; T20K 4 μM) | IL2 inhibition after 24 h ([3]; T20K 4 μM compared with CsA 5 μg/mL) | IL2 release after 48 h incubation ([3]; T20K 4 μM) | INFγ and IL22 cytokine release ([3]; dependent on the cyclotide addition) | cells containing the degranulation marker LAMP-1 as compared to the control [4]
1 | CC(C)C[C@@H]1NC(=O)CNC(=O)[C@H](CC(N)=O)NC(=O)[C@H](CCCNC(=N)N)NC(=O)[C@H]([C@@H](C)O)NC(=O)[C@@H]2CSSC[C@@H]3NC(=O)[C@H]([C@@H](C)O)NC(=O)CNC(=O)CNC(=O)[C@H](C(C)C)NC(=O)[C@@H]4CSSC[C@H](NC(=O)[C@H](CCCCN)NC(=O)[C@H](CSSC[C@H](NC(=O)[C@H](C(C)C)NC(=O)[C@@H]5CCCN5C1=O)C(=O)NCC(=O)N[C@@H](CCC(=O)O)C(=O)N[C@@H]([C@@H](C)O)C(=O)N4)NC(=O)CNC(=O)[C@@H]1CCCN1C(=O)[C@H]([C@@H](C)O)NC(=O)[C@H](CC(N)=O)NC3=O)C(=O)N[C@@H](CO)C(=O)N[C@@H](Cc1c[nH]c3ccccc13)C(=O)N1CCC[C@H]1C(=O)N[C@@H](C(C)C)C(=O)N2 [Kalata T20K] (cyclo(CGETCVGGTCNTPGCKCSWPVCTRNGLPV); disulfide 1-15, 5-17, 10-22 (inferred); ring closure inferred) | 21%±13.2 | did not induce significant changes in the level of IFN-gamma | 23%±10.6 | 24%±18.6 | inhibited | non-significant to the immune suppressive agent CsA | significantly inhibited | repressed significantly | 49%±16.8
2 | kalata B1 mutant GLPVCGETCKGGTCNTPGCTCSWPVCTRN (SEQ ID No. 10) [Kalata V10K] | – | did not induce significant changes in the level of IFN-gamma | – | no effect on the release of IL-2 | – | – | shows a inhibitory capacity towards IL2 release | – | no influence on the degranulation activity
